Data published in patent US8436183B2, “Synthetic multimerizing agents” (ARIAD Pharmaceuticals, Inc., priority 1994, dated 2013).
Where a name gives a salt, the structure may show the parent alone. Read-outs that look alike come from different tables or passages of the source.

How the values were obtained:
[1] = target: T1, FKBP F36I (Homo sapiens, UniProt P62942, F37I); assay: Competitive Binding FP Assay, F36I mutant FKBP
T1 construct: made in house
Protocol: (§1) Affinities of bumped synthetic ligands for FKBP were determined using a competitive assay based on fluorescence polarization (FP). […] The assay yields IC50 values that are related to the affinity of the competitive ligand for the protein.
(§2) For competition FP assays, the appropriate protein concentration (giving ˜90% binding of probe) was first determined by direct binding of probe to protein (see eg. Beacon FP System Applications Guide, Panvera Corp, Madison, Wis.). All binding assay procedures were performed at room temperature. Serial dilutions of each protein were prepared in 50 mM potassium phosphate pH 7.8/150 mM NaCl/100 μg/ml bovine gamma globulin (“FP buffer”: prepared using only low-fluorescence reagents from Panvera), and 100 μl volumes transferred to wells of a Dynatech micro-fluor black 96-well fluorescence plate. 100 μl of 10 nM 4 in FP buffer plus 2% ethanol (prepared from an ethanol stock of the probe) was then added to each well with mixing. Duplicate control wells contained FP buffer instead of FKBP (for 0% probe binding) or 10 μM wild-type FKBP (for 100% binding).
(§3) The plates were stored covered in the dark for approximately 30 min to permit equilibration and then the fluorescence polarization of the sample in each well was read on a Jolley FPM-2 FP plate reader (Jolley Consulting and Research, Inc., Grayslake, Ill.) in accordance with the manufacturer's recommendations. Polarization (mP units) for each protein concentration was plotted (y axis) vs. final concentration of FKBP (x axis). Concentrations were determined by OD280 measurements. Arbitrary units were used for non-quantitated proteins. Non-linear least square analysis was used to fit the curve and extract the Kd of the protein for the probe (in cases where the protein concentration was known) using the following four-parameter equation: y=M3+(((x+M1+M2)−SQRT(((x+M1+M2)^2)−(4*x*M1)))/(2*(M1)))*(M4−M3) where M1 is the probe concentration, M2 the Kd, and M3 and M4 the minimum and maximum mP values respectively.
(§4) Serial 10-fold dilutions of each synthetic ligand were prepared in 100% ethanol in glass vials and stored on ice. All other manipulations were performed at room temperature. […] 2.0 μl samples of the synthetic ligands were then transferred in duplicate to the wells with mixing. Finally, a probe solution was prepared containing 10 nM 4 in 0.1% ethanol/FP buffer, and 100 μl added to each well with mixing. Duplicate control wells contained ethanol instead of FKBP ligand (for 100% probe binding) or ethanol instead of FKBP ligand and FP buffer instead of FKBP (0% binding).
(§5) The plates were stored covered in the dark for approximately 30 min to permit equilibration and then the fluorescence polarization of the sample in each well read on a Jolley FPM-2 FP plate reader (Jolley Consulting and Research, Inc., Grayslake, Ill.) in accordance with the manufacturer's recommendations. The mean polarization (mP units) for each competitor concentration, in some cases converted to % total binding by reference to the control values, was plotted (y axis) vs. log molar final concentration of competitor (x axis). Non-linear least square analysis was used to fit the curve and extract the IC50 using the following equation: y=M1+(M4−M1)/(1+exp(M2*(M3−x))) where M3 is the IC50. For incomplete curves the IC50 was determined by interpolation.

[2] = target: T2, FKBP F36A (Homo sapiens, UniProt P62942, F37A); assay: Competitive Binding FP Assay, F36A mutant FKBP
T2 construct: made in house
T2 sequence (P62942 whole entry F37A): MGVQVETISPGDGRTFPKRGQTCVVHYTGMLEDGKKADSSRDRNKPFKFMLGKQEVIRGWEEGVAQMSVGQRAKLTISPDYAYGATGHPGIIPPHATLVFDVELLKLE
Protocol: as §1, §2, §3, §4, §5

[3] = target: T3, FKBP F36M (Homo sapiens, UniProt P62942, F37M); assay: Competitive Binding FP Assay, F36M mutant FKBP
T3 construct: made in house
T3 sequence (P62942 whole entry F37M): as the sequence (P62942 whole entry F37A) above, with A37M counted along it
Protocol: as §1, §2, §3, §4, §5

[4] = target: T4, FKBP F36S (Homo sapiens, UniProt P62942, F37S); assay: Competitive Binding FP Assay, F36S mutant FKBP; details: Synthetic Monomers table; normalized to FK506 run in the same experiment
T4 construct: made in house
T4 sequence (P62942 whole entry F37S): as the sequence (P62942 whole entry F37A) above, with A37S counted along it
Protocol: as §1
(§6) For competition FP assays, the appropriate protein concentration (giving ˜90% binding of probe) was first determined by direct binding of probe to protein (see eg. Beacon FP System Applications Guide, Panvera Corp, Madison, Wis.). All binding assay procedures were performed at room temperature. Serial dilutions of each protein were prepared in 50 mM potassium phosphate pH 7.8/150 mM NaCl/100 μg/ml bovine gamma globulin (“FP buffer”: prepared using only low-fluorescence reagents from Panvera), and 100 μl volumes transferred to wells of a Dynatech micro-fluor black 96-well fluorescence plate. 100 μl of 10 nM 4 in FP buffer plus 2% ethanol (prepared from an ethanol stock of the probe) was then added to each well with mixing. […]
(§7) The plates were stored covered in the dark for approximately 30 min to permit equilibration and then the fluorescence polarization of the sample in each well was read on a Jolley FPM-2 FP plate reader (Jolley Consulting and Research, Inc., Grayslake, Ill.) in accordance with the manufacturer's recommendations. […] Concentrations were determined by OD280 measurements. Arbitrary units were used for non-quantitated proteins. […]

[5] = target: FKBP F36L (Homo sapiens, UniProt P62942, F37L); assay: Competitive Binding FP Assay, F36L mutant FKBP
Sequence of FKBP F36L (P62942 whole entry F37L): as the sequence (P62942 whole entry F37A) above, with A37L counted along it
Protocol: as §1, §2
The plates were stored covered in the dark for approximately 30 min to permit equilibration and then the fluorescence polarization of the sample in each well was read on a Jolley FPM-2 FP plate reader (Jolley Consulting and Research, Inc., Grayslake, Ill.) in accordance with the manufacturer's recommendations. Polarization (mP units) for each protein concentration was plotted (y axis) vs. final concentration of FKBP (x axis). Concentrations were determined by OD280 measurements. Arbitrary units were used for non-quantitated proteins. […]
(§8) The plates were stored covered in the dark for approximately 30 min to permit equilibration and then the fluorescence polarization of the sample in each well read on a Jolley FPM-2 FP plate reader (Jolley Consulting and Research, Inc., Grayslake, Ill.) in accordance with the manufacturer's recommendations. […] For incomplete curves the IC50 was determined by interpolation.

[6] = target: T5, wild-type human FKBP12 (Homo sapiens, UniProt P62942)
T5 sequence (P62942 whole entry): as the sequence (P62942 whole entry F37A) above, with A37F counted along it
Protocol: as §1, §2, §3
(§9) Serial 10-fold dilutions of each synthetic ligand were prepared in 100% ethanol in glass vials and stored on ice. All other manipulations were performed at room temperature. […] Finally, a probe solution was prepared containing 10 nM 4 in 0.1% ethanol/FP buffer, and 100 μl added to each well with mixing. […]
as §8

[7] = target: FKBP F36V (Homo sapiens, UniProt P62942, F37V); assay: Competitive Binding FP Assay, F36V mutant FKBP
Sequence of FKBP F36V (P62942 whole entry F37V): as the sequence (P62942 whole entry F37A) above, with A37V counted along it
Protocol: as §1, §6, §7

[8] = target: T5, wild-type human FKBP12; assay: Competitive Binding FP Assay, wild-type FKBP; details: for wild-type, % @ 100000: Synthetic Monomers table, @ 100000 nM competitor
Protocol: as §1, §2, §3, §9, §8

[9] = target: T6, FAS-FKBP fusion (36V FKBP) in HT1080 cells (Homo sapiens, UniProt P62942, F37V); assay: Apoptosis Assay: Fas killing (36V, stable); format: cell-based; details: mean values
T6 construct: fused on or other part: Fas intracellular effector domain (gives the death read-out)
T6 sequence (P62942 2-108 F37V limits assumed): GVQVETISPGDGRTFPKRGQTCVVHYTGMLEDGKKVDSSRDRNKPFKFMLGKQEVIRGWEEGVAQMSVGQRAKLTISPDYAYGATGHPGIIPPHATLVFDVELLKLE
Description: In this case, one uses cells which constitutively express a detectable product. The cells also contain and are capable of expressing DNAs encoding chimeric proteins comprising one or more immunophilin-derived ligand binding domains and one or more effector domains, such as the intracellular domain of FAS, capable, upon multimerization, of triggering cell death. […] The cells are maintained or cultured in a culture medium permitting cell growth or continued viability. The cells or medium are assayed for the presence of the constitutive cellular product, and a base-line level of reporter is thus established. One may use cells engineered for constitutive production of hGH or any other conveniently detectable product to serve as the reporter. […]
The ability of a dimerizer to activate the Fas signal transduction pathway and trigger cell death in cells engineered to express a FAS-FKBP fusion can be tested in cells appropriately transduced by retroviral vectors to express the desired fusion protein. […] The next day, medium is removed and replaced with medium containing 10% Alamar Blue viability indicator, which changes absorbance properties as a function of reducing agent released into the medium by cell metabolism. Alternatively, cells are counted. Optical density at the appropriate wavelength is measured using a platereader spectroscope.

[10] = Synthetic Monomers table, normalized to FK506 run in the same experiment

T1 sequence (P62942 whole entry F37I): as the sequence (P62942 whole entry F37A) above, with A37I counted along it

Molecule `COc1ccc(CCC(OC(=O)C2CCCCN2C(=O)C(c2ccccc2)C2CCCC2)c2cccc(OCC(=O)O)c2)cc1OC` (mixture of isomers) [AP1778] has an IC50 [1, 10] of 41 nM and an IC50 [2, 10] of 75 nM.
`COc1ccc(CCC(OC(=O)C2CCCCN2C(=O)C(c2ccccc2)C(C)C)c2cccc(OCC(=O)O)c2)cc1OC` (mixture of isomers) [AP1781] showed an IC50 [3, 10] of 55 nM, an IC50 [1, 10] of 36 nM and an IC50 [2, 10] of 109 nM.
With `COc1ccc(CCC(OC(=O)C2CCCCN2C(=O)C(Cc2ccccc2)c2ccccc2)c2cccc(OCC(=O)O)c2)cc1OC` (mixture of isomers) [AP1831] the IC50 [3, 10] was 169 nM, the IC50 [1, 10] was 124 nM and the IC50 [2, 10] was 447 nM.
`CCC(C)(C)C(=O)C(=O)N1CCCC[C@H]1C(=O)O[C@H](CCc1ccc(OC)c(OC)c1)c1cccc(OCC(=O)O)c1` [AP1497] was tested, and the IC50 [4] was 1820 nM, the IC50 [1, 10] was 43 nM and the IC50 [2, 10] was 174 nM.
Molecule `COc1ccc(CC[C@@H](OC(=O)[C@@H]2CCCCN2C(=O)Cc2ccccc2)c2cccc(OCC(=O)O)c2)cc1OC` [AP1780] has an IC50 ([5]; read-out: F36L IC50, Synthetic Monomers table, normalized to FK506 run in the same experiment) of 3560 nM.
For `CCC(C(=O)N1CCCC[C@H]1C(=O)O[C@H](CCc1ccc(OC)c(OC)c1)c1cccc(OCC(=O)O)c1)c1ccc2c(c1)OCO2` (stereo partly drawn) [AP1839], the IC50 [6] was over 16900 nM.
`CC[C@H](C(=O)N1CCCC[C@H]1C(=O)O[C@H](CCc1ccc(OC)c(OC)c1)c1cccc(OCC(=O)O)c1)c1cc(OC)c(OC)c(OC)c1` [AP1867] showed an IC50 [3] of 10 nM, an IC50 [1] of 5.1 nM and an IC50 [2] of 18 nM. It also gave an IC50 [7] of 1.8 nM, an IC50 [5] of 6.2 nM and an IC50 [8] of 2930 nM.
With `COc1ccc(CC[C@@H](OC(=O)[C@@H]2CCCCN2C(=O)C(c2ccccc2)c2ccccc2)c2cccc(OCC(=O)O)c2)cc1OC` [AP14245] the “wild-type, % @ 100000” value [8] was 73% @ 100000.
`CC[C@H](C(=O)N1CCCC[C@H]1C(=O)O[C@H](CCN1CCOCC1)c1cccc(OCC(=O)O)c1)c1cc(OC)c(OC)c(OC)c1` [AP14246, (1R)-1-(3-(carboxymethoxy)phenyl)-3-(morpholino)-1-propyl (2S)-1-((2S)-(3,4,5-trimethoxyphenyl)butyryl)-2-piperidine carboxylate] was tested, and the IC50 [3] was 52 nM, the IC50 [1] was 32 nM and the IC50 [2] was 77 nM. The IC50 [7] was 16.5 nM, the IC50 [5] was 68 nM and the “wild-type, % @ 100000” value [8] was 75% @ 100000.
`CC[C@H](C(=O)N1CCCC[C@H]1C(=O)O[C@H](CCc1cccnc1)c1cccc(OCC(=O)O)c1)c1cc(OC)c(OC)c(OC)c1` [AP14252, hydrochloride] gave an IC50 [3] of 54 nM, an IC50 [1] of 6.7 nM and an IC50 [2] of 63 nM.
For AP20187, the EC50 [9] was under 1 nM.
